Data taken from ChEMBL document CHEMBL5303762, “Data for DCP probe BI-8668” (2023).

Tests used:
[1] = biological target: Alpha-1B adrenergic receptor (Homo sapiens) (UniProt P35368); settings: Compound concentration 10.0 uM
[2] = biological target: 5-hydroxytryptamine receptor 1D (Homo sapiens) (UniProt P28221); settings: Compound concentration 10.0 uM
[3] = biological target: Alpha-2C adrenergic receptor (Homo sapiens) (UniProt P18825); settings: Compound concentration 10.0 uM
[4] = biological target: T1, Muscarinic acetylcholine receptor M1 (Homo sapiens) (UniProt P11229); settings: Compound concentration 10.0 uM
T1 sequence (whole entry): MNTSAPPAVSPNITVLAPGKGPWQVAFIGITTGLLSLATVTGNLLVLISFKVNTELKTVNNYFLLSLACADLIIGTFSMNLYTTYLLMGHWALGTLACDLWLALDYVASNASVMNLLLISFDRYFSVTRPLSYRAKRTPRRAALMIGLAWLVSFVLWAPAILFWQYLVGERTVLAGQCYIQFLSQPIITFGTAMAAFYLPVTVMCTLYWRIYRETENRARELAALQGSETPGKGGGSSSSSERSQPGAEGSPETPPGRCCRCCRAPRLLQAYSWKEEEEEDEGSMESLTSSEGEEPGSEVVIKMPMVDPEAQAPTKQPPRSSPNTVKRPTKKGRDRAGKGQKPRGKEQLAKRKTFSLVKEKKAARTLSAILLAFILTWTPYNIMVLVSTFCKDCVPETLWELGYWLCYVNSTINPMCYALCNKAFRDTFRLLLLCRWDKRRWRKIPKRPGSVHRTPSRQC

[5] = biological target: GABA-A receptor; anion channel (Rattus norvegicus) (UniProt O09028+P15431+P18506+P18508+P19969+P20236+P23574+P23576+P28471+P28473+P30191+P62813+P63079+P63138+Q91ZM7+Q9ES14); settings: Compound concentration 10.0 uM
[6] = biological target: Muscarinic acetylcholine receptor M5 (Homo sapiens) (UniProt P08912); settings: Compound concentration 10.0 uM
Chain of Muscarinic acetylcholine receptor M5 (Homo sapiens) (P08912 whole entry): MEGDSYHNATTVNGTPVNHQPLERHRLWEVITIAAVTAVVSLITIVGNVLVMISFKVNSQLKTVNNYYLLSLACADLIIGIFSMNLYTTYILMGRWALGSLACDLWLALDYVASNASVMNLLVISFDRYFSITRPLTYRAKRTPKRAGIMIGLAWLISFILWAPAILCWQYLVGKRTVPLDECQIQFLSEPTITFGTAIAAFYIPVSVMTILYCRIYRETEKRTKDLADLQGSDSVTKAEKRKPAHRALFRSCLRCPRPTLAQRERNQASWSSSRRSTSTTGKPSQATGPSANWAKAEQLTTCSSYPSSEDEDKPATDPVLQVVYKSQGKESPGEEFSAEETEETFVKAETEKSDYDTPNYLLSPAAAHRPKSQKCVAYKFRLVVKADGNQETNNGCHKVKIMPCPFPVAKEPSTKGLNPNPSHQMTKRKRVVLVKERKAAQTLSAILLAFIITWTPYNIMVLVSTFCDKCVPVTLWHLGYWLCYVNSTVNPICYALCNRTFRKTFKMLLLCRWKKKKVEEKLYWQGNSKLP

[7] = biological target: Sodium-dependent noradrenaline transporter (Homo sapiens) (UniProt P23975); settings: Compound concentration 10.0 uM
Chain of Sodium-dependent noradrenaline transporter (Homo sapiens) (P23975 whole entry): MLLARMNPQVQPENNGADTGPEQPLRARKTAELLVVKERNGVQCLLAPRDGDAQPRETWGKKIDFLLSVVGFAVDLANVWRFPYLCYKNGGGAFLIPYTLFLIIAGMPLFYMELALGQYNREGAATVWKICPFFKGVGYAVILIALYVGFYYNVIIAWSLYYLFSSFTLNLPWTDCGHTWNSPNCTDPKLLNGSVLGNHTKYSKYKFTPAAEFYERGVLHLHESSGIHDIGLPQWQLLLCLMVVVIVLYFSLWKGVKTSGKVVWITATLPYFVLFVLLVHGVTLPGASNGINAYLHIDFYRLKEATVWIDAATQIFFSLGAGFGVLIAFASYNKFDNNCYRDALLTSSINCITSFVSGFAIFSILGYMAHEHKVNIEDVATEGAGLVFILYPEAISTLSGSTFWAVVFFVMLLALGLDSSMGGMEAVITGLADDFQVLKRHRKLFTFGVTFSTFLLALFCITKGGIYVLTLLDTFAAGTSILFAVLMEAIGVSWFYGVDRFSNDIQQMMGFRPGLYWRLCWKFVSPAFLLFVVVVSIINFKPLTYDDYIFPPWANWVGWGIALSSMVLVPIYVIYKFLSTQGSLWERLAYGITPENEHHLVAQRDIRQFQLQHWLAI

[8] = biological target: Muscarinic acetylcholine receptor M4 (Homo sapiens) (UniProt P08173); settings: Compound concentration 10.0 uM
Chain of Muscarinic acetylcholine receptor M4 (Homo sapiens) (P08173 whole entry): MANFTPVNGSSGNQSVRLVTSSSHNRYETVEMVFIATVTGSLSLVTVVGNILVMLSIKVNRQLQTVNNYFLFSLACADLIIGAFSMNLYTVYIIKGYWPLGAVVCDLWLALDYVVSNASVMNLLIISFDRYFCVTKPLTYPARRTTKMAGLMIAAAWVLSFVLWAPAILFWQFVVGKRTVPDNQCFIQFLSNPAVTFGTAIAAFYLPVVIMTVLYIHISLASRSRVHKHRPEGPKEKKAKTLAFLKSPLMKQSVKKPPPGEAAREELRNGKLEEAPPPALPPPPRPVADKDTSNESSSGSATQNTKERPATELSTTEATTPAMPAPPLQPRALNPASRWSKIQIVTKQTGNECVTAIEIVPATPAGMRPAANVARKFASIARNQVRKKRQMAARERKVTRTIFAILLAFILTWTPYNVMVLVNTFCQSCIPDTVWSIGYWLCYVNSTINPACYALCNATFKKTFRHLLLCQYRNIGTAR

[9] = biological target: Delta-type opioid receptor (Homo sapiens) (UniProt P41143); settings: Compound concentration 10.0 uM
Chain of Delta-type opioid receptor (Homo sapiens) (P41143 whole entry): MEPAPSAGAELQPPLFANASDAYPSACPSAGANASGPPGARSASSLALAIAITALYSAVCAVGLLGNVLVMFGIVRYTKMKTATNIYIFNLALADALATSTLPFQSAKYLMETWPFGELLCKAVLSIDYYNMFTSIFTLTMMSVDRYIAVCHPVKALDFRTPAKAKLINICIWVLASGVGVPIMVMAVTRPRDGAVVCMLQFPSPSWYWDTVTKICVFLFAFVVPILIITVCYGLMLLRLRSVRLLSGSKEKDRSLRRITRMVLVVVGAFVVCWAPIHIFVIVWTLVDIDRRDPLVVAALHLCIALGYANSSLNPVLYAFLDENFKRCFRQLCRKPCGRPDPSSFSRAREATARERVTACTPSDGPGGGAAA

[10] = biological target: 5-hydroxytryptamine receptor 5A (Homo sapiens) (UniProt P47898); settings: Compound concentration 10.0 uM
Chain of 5-hydroxytryptamine receptor 5A (Homo sapiens) (P47898 whole entry): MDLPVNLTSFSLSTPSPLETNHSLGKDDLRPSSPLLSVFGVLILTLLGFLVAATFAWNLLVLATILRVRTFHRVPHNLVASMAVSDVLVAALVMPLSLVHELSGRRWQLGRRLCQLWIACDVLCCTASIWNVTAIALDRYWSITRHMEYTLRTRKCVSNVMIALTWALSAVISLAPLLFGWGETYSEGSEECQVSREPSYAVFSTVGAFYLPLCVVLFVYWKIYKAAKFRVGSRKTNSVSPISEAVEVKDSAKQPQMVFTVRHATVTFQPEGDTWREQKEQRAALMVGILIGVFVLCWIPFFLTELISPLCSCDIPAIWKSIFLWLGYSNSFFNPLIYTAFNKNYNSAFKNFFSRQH

[11] = biological target: T2, Muscarinic acetylcholine receptor M2 (Homo sapiens) (UniProt P08172); test: M2(H)AGON Eurofins SafetyScreen44 (BI); settings: filed as agonist, Compound concentration 10.0 uM
T2 sequence (whole entry): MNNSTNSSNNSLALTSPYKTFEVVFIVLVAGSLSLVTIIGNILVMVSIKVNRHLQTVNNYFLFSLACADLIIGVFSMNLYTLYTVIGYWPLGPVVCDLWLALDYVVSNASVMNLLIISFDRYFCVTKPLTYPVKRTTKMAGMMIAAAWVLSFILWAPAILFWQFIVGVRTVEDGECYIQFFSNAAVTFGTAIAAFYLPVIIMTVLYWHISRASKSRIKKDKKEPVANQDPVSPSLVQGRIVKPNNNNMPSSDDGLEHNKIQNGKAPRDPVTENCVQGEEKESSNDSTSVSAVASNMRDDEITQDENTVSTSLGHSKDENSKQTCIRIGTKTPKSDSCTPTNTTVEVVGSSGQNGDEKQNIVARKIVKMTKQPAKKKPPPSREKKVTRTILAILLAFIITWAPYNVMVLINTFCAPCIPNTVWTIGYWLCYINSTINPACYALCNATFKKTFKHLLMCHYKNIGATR

[12] = biological target: T3, Alpha-1A adrenergic receptor (Homo sapiens) (UniProt P35348); test: ALPHA1A(H)AGON Eurofins SafetyScreen44 (BI); settings: filed as agonist, Compound concentration 10.0 uM
T3 sequence (whole entry): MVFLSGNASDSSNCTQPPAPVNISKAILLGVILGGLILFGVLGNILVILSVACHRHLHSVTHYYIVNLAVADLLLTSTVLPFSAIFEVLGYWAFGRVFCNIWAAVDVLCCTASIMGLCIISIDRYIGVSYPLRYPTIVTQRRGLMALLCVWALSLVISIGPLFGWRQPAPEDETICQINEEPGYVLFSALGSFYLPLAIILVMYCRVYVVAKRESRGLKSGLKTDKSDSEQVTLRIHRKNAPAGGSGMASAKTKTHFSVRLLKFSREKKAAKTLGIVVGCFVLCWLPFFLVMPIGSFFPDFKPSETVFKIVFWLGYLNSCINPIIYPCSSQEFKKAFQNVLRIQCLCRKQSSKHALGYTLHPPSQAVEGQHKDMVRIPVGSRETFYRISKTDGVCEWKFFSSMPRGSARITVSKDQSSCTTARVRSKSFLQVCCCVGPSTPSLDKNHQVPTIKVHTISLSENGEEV

[13] = biological target: Histamine H1 receptor (Homo sapiens) (UniProt P35367); settings: Compound concentration 10.0 uM
Chain of Histamine H1 receptor (Homo sapiens) (P35367 whole entry): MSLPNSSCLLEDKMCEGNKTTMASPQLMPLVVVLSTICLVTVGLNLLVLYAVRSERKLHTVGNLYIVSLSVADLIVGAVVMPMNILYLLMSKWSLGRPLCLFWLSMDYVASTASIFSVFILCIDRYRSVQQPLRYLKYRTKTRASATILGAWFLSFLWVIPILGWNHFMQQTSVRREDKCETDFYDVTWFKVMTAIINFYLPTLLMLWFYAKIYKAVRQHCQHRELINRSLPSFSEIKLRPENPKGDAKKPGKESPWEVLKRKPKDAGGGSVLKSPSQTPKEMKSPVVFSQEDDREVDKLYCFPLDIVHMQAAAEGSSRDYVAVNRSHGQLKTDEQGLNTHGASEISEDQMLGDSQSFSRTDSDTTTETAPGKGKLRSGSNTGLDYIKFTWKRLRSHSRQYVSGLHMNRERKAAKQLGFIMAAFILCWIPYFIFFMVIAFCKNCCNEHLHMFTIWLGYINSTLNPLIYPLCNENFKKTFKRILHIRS

[14] = biological target: T3, Alpha-1A adrenergic receptor (Homo sapiens); settings: Compound concentration 10.0 uM
[15] = biological target: Beta-3 adrenergic receptor (Homo sapiens) (UniProt P13945); settings: Compound concentration 10.0 uM
[16] = biological target: Prostaglandin G/H synthase 2 (Homo sapiens) (UniProt P35354); test: COX2_HU Eurofins SafetyScreen44 (BI); settings: Compound concentration 10.0 uM
[17] = biological target: 5-hydroxytryptamine receptor 1B (Homo sapiens) (UniProt P28222); settings: Compound concentration 10.0 uM
Chain of 5-hydroxytryptamine receptor 1B (Homo sapiens) (P28222 whole entry): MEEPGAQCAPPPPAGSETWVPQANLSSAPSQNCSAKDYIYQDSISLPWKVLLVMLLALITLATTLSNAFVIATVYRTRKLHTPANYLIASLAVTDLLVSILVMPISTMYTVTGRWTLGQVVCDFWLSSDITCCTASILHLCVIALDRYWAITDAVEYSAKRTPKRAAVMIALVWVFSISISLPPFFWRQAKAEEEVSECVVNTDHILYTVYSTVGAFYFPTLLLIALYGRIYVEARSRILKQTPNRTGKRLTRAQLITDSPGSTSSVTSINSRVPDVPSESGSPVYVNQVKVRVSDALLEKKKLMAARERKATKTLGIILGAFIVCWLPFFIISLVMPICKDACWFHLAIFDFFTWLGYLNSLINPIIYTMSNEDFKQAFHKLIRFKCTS

[18] = biological target: Kappa-type opioid receptor (Homo sapiens) (UniProt P41145); settings: Compound concentration 10.0 uM
[19] = biological target: Beta-1 adrenergic receptor (Homo sapiens) (UniProt P08588); settings: Compound concentration 10.0 uM
[20] = biological target: 5-hydroxytryptamine receptor 2C (Homo sapiens) (UniProt P28335); settings: Compound concentration 10.0 uM
Chain of 5-hydroxytryptamine receptor 2C (Homo sapiens) (P28335 whole entry): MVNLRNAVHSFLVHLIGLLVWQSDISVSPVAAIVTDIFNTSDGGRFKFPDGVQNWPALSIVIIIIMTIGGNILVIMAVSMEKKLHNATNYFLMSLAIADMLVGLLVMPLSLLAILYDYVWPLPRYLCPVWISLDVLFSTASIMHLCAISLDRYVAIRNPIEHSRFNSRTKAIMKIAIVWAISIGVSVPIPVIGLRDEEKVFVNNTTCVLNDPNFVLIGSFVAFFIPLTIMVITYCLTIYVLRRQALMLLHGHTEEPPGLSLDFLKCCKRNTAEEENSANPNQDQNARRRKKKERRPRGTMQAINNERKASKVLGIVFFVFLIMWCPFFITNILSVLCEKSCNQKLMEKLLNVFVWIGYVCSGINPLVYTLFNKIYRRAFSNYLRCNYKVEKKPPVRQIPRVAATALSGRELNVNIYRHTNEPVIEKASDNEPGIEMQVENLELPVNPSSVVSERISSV

[21] = biological target: Mu-type opioid receptor (Homo sapiens) (UniProt P35372); settings: Compound concentration 10.0 uM
[22] = biological target: Sigma non-opioid intracellular receptor 1 (Homo sapiens) (UniProt Q99720); settings: Compound concentration 10.0 uM
[23] = biological target: 5-hydroxytryptamine receptor 2A (Homo sapiens) (UniProt P28223); settings: Compound concentration 10.0 uM
Chain of 5-hydroxytryptamine receptor 2A (Homo sapiens) (P28223 whole entry): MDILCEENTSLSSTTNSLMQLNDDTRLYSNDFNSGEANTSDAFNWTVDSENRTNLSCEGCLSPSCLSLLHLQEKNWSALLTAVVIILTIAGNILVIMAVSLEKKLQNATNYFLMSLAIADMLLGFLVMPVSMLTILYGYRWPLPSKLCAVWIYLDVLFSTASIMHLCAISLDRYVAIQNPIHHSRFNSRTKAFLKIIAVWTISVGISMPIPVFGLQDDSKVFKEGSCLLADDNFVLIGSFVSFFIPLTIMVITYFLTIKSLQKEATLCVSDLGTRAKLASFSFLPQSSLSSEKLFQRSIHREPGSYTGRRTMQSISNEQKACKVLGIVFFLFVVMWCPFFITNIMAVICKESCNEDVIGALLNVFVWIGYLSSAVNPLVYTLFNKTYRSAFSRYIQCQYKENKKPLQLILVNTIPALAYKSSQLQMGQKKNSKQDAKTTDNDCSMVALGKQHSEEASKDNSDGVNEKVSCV

[24] = biological target: Beta-2 adrenergic receptor (Homo sapiens) (UniProt P07550); settings: Compound concentration 10.0 uM
Chain of Beta-2 adrenergic receptor (Homo sapiens) (P07550 whole entry, looked up): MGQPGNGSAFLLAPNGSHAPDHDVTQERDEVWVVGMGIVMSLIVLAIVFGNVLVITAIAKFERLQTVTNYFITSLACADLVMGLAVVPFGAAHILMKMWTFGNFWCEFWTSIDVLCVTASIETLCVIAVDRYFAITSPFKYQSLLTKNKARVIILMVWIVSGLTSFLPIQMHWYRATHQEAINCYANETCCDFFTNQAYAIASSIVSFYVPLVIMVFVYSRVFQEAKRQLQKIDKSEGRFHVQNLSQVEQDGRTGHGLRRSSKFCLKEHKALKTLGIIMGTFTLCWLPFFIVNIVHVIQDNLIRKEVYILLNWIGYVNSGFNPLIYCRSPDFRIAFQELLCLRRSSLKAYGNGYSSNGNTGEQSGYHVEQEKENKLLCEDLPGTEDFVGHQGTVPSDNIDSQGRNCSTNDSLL

[25] = biological target: 5-hydroxytryptamine receptor 1B (Rattus norvegicus) (UniProt P28564); test: 5HT1B/R Eurofins SafetyScreen44 (BI); settings: Compound concentration 10.0 uM
[26] = biological target: Prostaglandin G/H synthase 1 (Homo sapiens) (UniProt P23219); test: COX-1 Eurofins SafetyScreen44 (BI); settings: Compound concentration 10.0 uM

Chain of 5-hydroxytryptamine receptor 1D (Homo sapiens) (P28221 whole entry): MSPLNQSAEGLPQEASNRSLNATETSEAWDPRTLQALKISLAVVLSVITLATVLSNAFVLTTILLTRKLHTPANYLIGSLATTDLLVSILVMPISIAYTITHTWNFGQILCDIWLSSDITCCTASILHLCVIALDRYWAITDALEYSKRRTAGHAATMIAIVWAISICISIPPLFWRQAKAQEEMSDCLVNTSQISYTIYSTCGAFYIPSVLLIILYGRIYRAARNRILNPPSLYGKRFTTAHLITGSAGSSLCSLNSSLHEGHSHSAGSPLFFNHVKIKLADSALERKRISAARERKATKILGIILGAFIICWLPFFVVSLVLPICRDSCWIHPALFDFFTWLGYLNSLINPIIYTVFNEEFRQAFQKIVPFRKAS

CCn1c(CNC(=O)c2nc(Cl)cnc2N)[n+](CC)c2ccc(C(=O)N(C)CCN(C)C)cc21
inactive: inhibition [1] 44.9% | inhibition [2] 22.8% | inhibition [3] 0.47% | inhibition [4] 10.2% | inhibition [5] 22.4% | inhibition [6] 18.7% | inhibition [7] -7.54% | inhibition [8] 7.09% | inhibition [9] 3.99% | inhibition [10] -6.08% | residual activity [11] 85.2% | residual activity [12] 99.6% | inhibition [13] -1.28% | inhibition [14] -1.19% | inhibition [15] -2.81% | residual activity [16] 85% | inhibition [17] 8.35% | inhibition [18] 25.3% | inhibition [19] 4.25% | inhibition [20] 1.01% | inhibition [21] 11% | inhibition [22] 20% | inhibition [23] -1.15% | inhibition [24] -5.7% | residual activity [25] 113%

CCn1c(CNC(=O)c2ncc(C)nc2N)[n+](CC)c2ccc(C(=O)N(C)CN(C)C)cc21
inactive: residual activity [26] 84%
